# Legend:
# Staphylococcus aureus [1] = assay: Antimicrobial activity against Staphylococcus aureus NCTC 4163 after 18 hrs by twofold serial broth dilution method; format: functional; settings: NCTC 4163, 18 h
# Staphylococcus aureus [2] = assay: Antimicrobial activity against Staphylococcus aureus ATCC 25923 after 18 hrs by twofold serial broth dilution method; format: functional; settings: ATCC 25923, 18 h
# Staphylococcus aureus [3] = assay: Antimicrobial activity against Staphylococcus aureus […] after 18 hrs by twofold serial broth dilution method; format: functional
# [4] = tested on: Staphylococcus epidermidis; assay: Antimicrobial activity against Staphylococcus epidermidis ATCC 35984 after 18 hrs by twofold serial broth dilution method; format: functional; settings: ATCC 35984, 18 h
# Escherichia coli [5] = assay: Antimicrobial activity against Escherichia coli ATCC 10538 after 18 hrs by twofold serial broth dilution method; format: functional; settings: ATCC 10538, 18 h
# Escherichia coli [6] = assay: Antimicrobial activity against Escherichia coli ATCC 25922 after 18 hrs by twofold serial broth dilution method; format: functional; settings: ATCC 25922, 18 h
# Escherichia coli [7] = assay: Antimicrobial activity against Escherichia coli NCTC 8196 after 18 hrs by twofold serial broth dilution method; format: functional; settings: NCTC 8196, 18 h
# Pseudomonas aeruginosa [8] = assay: Antimicrobial activity against Pseudomonas aeruginosa NCTC 6749 after 18 hrs by twofold serial broth dilution method; format: functional; settings: NCTC 6749, 18 h
# Pseudomonas aeruginosa [9] = assay: Antimicrobial activity against Pseudomonas aeruginosa ATCC 27853 after 18 hrs by twofold serial broth dilution method; format: functional; settings: ATCC 27853, 18 h
# Bacillus anthracis = assay: Antimicrobial activity against Bacillus anthracis 34F2 after 18 hrs by twofold serial broth dilution method; format: functional; settings: 34F2, 18 h
# Staphylococcus aureus [10] = assay: Bactericidal activity against Staphylococcus aureus NCTC 4163 after 24 hrs; format: functional; settings: NCTC 4163, 24 h, read-out: MBC99.9
# Staphylococcus aureus [11] = assay: Bactericidal activity against Staphylococcus aureus ATCC 25923 after 24 hrs; format: functional; settings: ATCC 25923, 24 h, read-out: MBC99.9
# Staphylococcus aureus [12] = assay: Bactericidal activity against Staphylococcus aureus ATCC 6538 after 24 hrs; format: functional; settings: ATCC 6538, 24 h, read-out: MBC99.9
# Staphylococcus aureus [13] = assay: Bactericidal activity against Staphylococcus aureus […] after 24 hrs; format: functional; settings: read-out: MBC99.9
# [14] = tested on: Staphylococcus epidermidis; assay: Bactericidal activity against Staphylococcus epidermidis ATCC 35984 after 24 hrs; format: functional; settings: ATCC 35984, 24 h, read-out: MBC99.9
# Escherichia coli [15] = assay: Bactericidal activity against Escherichia coli ATCC 10538 after 24 hrs; format: functional; settings: ATCC 10538, 24 h, read-out: MBC99.9
# Pseudomonas aeruginosa [16] = assay: Bactericidal activity against Pseudomonas aeruginosa ATCC 15442 after 24 hrs; format: functional; settings: ATCC 15442, 24 h, read-out: MBC99.9
# Pseudomonas aeruginosa [17] = assay: Bactericidal activity against Pseudomonas aeruginosa NCTC 6749 after 24 hrs; format: functional; settings: NCTC 6749, 24 h, read-out: MBC99.9
# Pseudomonas aeruginosa [18] = assay: Bactericidal activity against Pseudomonas aeruginosa ATCC 27853 after 24 hrs; format: functional; settings: ATCC 27853, 24 h, read-out: MBC99.9
# [19] = tested on: Staphylococcus epidermidis; assay: Antimicrobial activity against methicillin-resistant Staphylococcus epidermidis isolate 407/10 after 18 hrs by twofold serial broth dilution method; format: functional; settings: isolate 407/10, 18 h
# [20] = tested on: Staphylococcus epidermidis; assay: Antimicrobial activity against methicillin-resistant Staphylococcus epidermidis isolate 409/10 after 18 hrs by twofold serial broth dilution method; format: functional; settings: isolate 409/10, 18 h
# [21] = tested on: Staphylococcus epidermidis; assay: Antimicrobial activity against methicillin-resistant Staphylococcus epidermidis isolate 422/10 after 18 hrs by twofold serial broth dilution method; format: functional; settings: isolate 422/10, 18 h
# [22] = tested on: Staphylococcus epidermidis; assay: Antimicrobial activity against methicillin-resistant Staphylococcus epidermidis isolate 424/10 after 18 hrs by twofold serial broth dilution method; format: functional; settings: isolate 424/10, 18 h
# [23] = tested on: Staphylococcus epidermidis; assay: Antimicrobial activity against methicillin-resistant Staphylococcus epidermidis isolate 454/11 after 18 hrs by twofold serial broth dilution method; format: functional; settings: isolate 454/11, 18 h
# [24] = tested on: Staphylococcus epidermidis; assay: Antimicrobial activity against methicillin-resistant Staphylococcus epidermidis isolate 455/11 after 18 hrs by twofold serial broth dilution method; format: functional; settings: isolate 455/11, 18 h
# [25] = tested on: Staphylococcus epidermidis; assay: Antimicrobial activity against methicillin-resistant Staphylococcus epidermidis isolate 457/11 after 18 hrs by twofold serial broth dilution method; format: functional; settings: isolate 457/11, 18 h
# [26] = tested on: Staphylococcus epidermidis; assay: Antimicrobial activity against methicillin-resistant Staphylococcus epidermidis isolate 458/11 after 18 hrs by twofold serial broth dilution method; format: functional; settings: isolate 458/11, 18 h
# [27] = tested on: Staphylococcus epidermidis; assay: Antimicrobial activity against methicillin-resistant Staphylococcus epidermidis isolate 459/11 after 18 hrs by twofold serial broth dilution method; format: functional; settings: isolate 459/11, 18 h
# [28] = tested on: Staphylococcus epidermidis; assay: Antimicrobial activity against methicillin-resistant Staphylococcus epidermidis isolate 460/11 after 18 hrs by twofold serial broth dilution method; format: functional; settings: isolate 460/11, 18 h
# [29] = tested on: Staphylococcus epidermidis; assay: Antimicrobial activity against methicillin-resistant Staphylococcus epidermidis isolate 469/11 after 18 hrs by twofold serial broth dilution method; format: functional; settings: isolate 469/11, 18 h
# [30] = tested on: Staphylococcus epidermidis; assay: Bactericidal activity against methicillin-resistant Staphylococcus epidermidis isolate 403/10 after 24 hrs; format: functional; settings: isolate 403/10, 24 h, read-out: MBC99.9
# [31] = tested on: Staphylococcus epidermidis; assay: Bactericidal activity against methicillin-resistant Staphylococcus epidermidis isolate 407/10 after 24 hrs; format: functional; settings: isolate 407/10, 24 h, read-out: MBC99.9
# [32] = tested on: Staphylococcus epidermidis; assay: Bactericidal activity against methicillin-resistant Staphylococcus epidermidis isolate 409/10 after 24 hrs; format: functional; settings: isolate 409/10, 24 h, read-out: MBC99.9
# [33] = tested on: Staphylococcus epidermidis; assay: Bactericidal activity against methicillin-resistant Staphylococcus epidermidis isolate 424/10 after 24 hrs; format: functional; settings: isolate 424/10, 24 h, read-out: MBC99.9
# [34] = tested on: Staphylococcus epidermidis; assay: Bactericidal activity against methicillin-resistant Staphylococcus epidermidis isolate 454/11 after 24 hrs; format: functional; settings: isolate 454/11, 24 h, read-out: MBC99.9
# [35] = tested on: Staphylococcus epidermidis; assay: Bactericidal activity against methicillin-resistant Staphylococcus epidermidis isolate 455/11 after 24 hrs; format: functional; settings: isolate 455/11, 24 h, read-out: MBC99.9
# [36] = tested on: Staphylococcus epidermidis; assay: Bactericidal activity against methicillin-resistant Staphylococcus epidermidis isolate 457/11 after 24 hrs; format: functional; settings: isolate 457/11, 24 h, read-out: MBC99.9
# [37] = tested on: Staphylococcus epidermidis; assay: Bactericidal activity against methicillin-resistant Staphylococcus epidermidis isolate 458/11 after 24 hrs; format: functional; settings: isolate 458/11, 24 h, read-out: MBC99.9
# [38] = tested on: Staphylococcus epidermidis; assay: Bactericidal activity against methicillin-resistant Staphylococcus epidermidis isolate 459/11 after 24 hrs; format: functional; settings: isolate 459/11, 24 h, read-out: MBC99.9
# [39] = tested on: Staphylococcus epidermidis; assay: Bactericidal activity against methicillin-resistant Staphylococcus epidermidis isolate 460/11 after 24 hrs; format: functional; settings: isolate 460/11, 24 h, read-out: MBC99.9
# [40] = tested on: Staphylococcus epidermidis; assay: Bactericidal activity against methicillin-resistant Staphylococcus epidermidis isolate 470/11 after 24 hrs; format: functional; settings: isolate 470/11, 24 h, read-out: MBC99.9
# Bacillus subtilis [41] = assay: Genotoxicity in rec-positive Bacillus subtilis H17 at 2 ug/9 mm disc after 24 hrs by disc diffusion method; format: toxicity, organism-based
# Bacillus subtilis [42] = assay: Genotoxicity in rec-negative Bacillus subtilis M45 at 2 ug/9 mm disc after 24 hrs by disc diffusion method; format: toxicity, organism-based
compound,measurement,setting,value
CC[C@@H](C(=O)[C@@H](C)[C@@H](O)[C@H](C)[C@@H]1O[C@@H]([C@@H](CC)C(=O)N2CCNCC2)CC[C@@H]1C)[C@H]1O[C@]2(C=C[C@@H](O)[C@]3(CC[C@@](C)([C@H]4CC[C@](O)(CC)[C@H](C)O4)O3)O2)[C@H](C)C[C@@H]1C,MIC,Staphylococcus aureus [1],128 µg/mL
same,MIC,Staphylococcus aureus [2],128 µg/mL
same,MIC,Staphylococcus aureus [3],128 µg/mL
same,MIC,[4],128 µg/mL
same,MIC,Escherichia coli [5],> 256 µg/mL
same,MIC,Escherichia coli [6],> 256 µg/mL
same,MIC,Escherichia coli [7],> 256 µg/mL
same,MIC,Pseudomonas aeruginosa [8],> 256 µg/mL
same,MIC,Pseudomonas aeruginosa [9],> 256 µg/mL
same,MIC,Bacillus anthracis,64 µg/mL
same,MBC,Staphylococcus aureus [10],> 256 µg/mL
same,MBC,Staphylococcus aureus [11],> 256 µg/mL
same,MBC,Staphylococcus aureus [12],> 256 µg/mL
same,MBC,Staphylococcus aureus [13],> 256 µg/mL
same,MBC,[14],> 256 µg/mL
same,MBC,Escherichia coli [15],> 256 µg/mL
same,MBC,Pseudomonas aeruginosa [16],> 256 µg/mL
same,MBC,Pseudomonas aeruginosa [17],> 256 µg/mL
same,MBC,Pseudomonas aeruginosa [18],> 256 µg/mL
same,MIC,[19],128 µg/mL
same,MIC,[20],128 µg/mL
same,MIC,[21],128 µg/mL
same,MIC,[22],64 µg/mL
same,MIC,[23],128 µg/mL
same,MIC,[24],256 µg/mL
same,MIC,[25],256 µg/mL
same,MIC,[26],128 µg/mL
same,MIC,[27],64 µg/mL
same,MIC,[28],128 µg/mL
same,MIC,[29],128 µg/mL
same,MBC,[30],> 256 µg/mL
same,MBC,[31],> 256 µg/mL
same,MBC,[32],> 256 µg/mL
same,MBC,[33],> 256 µg/mL
same,MBC,[34],> 256 µg/mL
same,MBC,[35],> 256 µg/mL
same,MBC,[36],> 256 µg/mL
same,MBC,[37],> 256 µg/mL
same,MBC,[38],> 256 µg/mL
same,MBC,[39],> 256 µg/mL
same,MBC,[40],> 256 µg/mL
same,diameter of the inhibition zone (DIZ),Bacillus subtilis [41],14 mm
same,diameter of the inhibition zone (DIZ),Bacillus subtilis [42],14 mm
CC[C@@H](C(=O)[C@@H](C)[C@@H](O)[C@H](C)[C@@H]1O[C@@H]([C@@H](CC)C(=O)N(CC)CC)CC[C@@H]1C)[C@H]1O[C@]2(C=C[C@@H](O)[C@]3(CC[C@@](C)([C@H]4CC[C@](O)(CC)[C@H](C)O4)O3)O2)[C@H](C)C[C@@H]1C,MIC,Staphylococcus aureus [1],4 µg/mL
same,MIC,Staphylococcus aureus [2],2 µg/mL
same,MIC,Staphylococcus aureus [3],4 µg/mL
same,MIC,[4],4 µg/mL
same,MIC,Escherichia coli [5],> 256 µg/mL
same,MIC,Escherichia coli [6],> 256 µg/mL
same,MIC,Escherichia coli [7],> 256 µg/mL
same,MIC,Pseudomonas aeruginosa [8],> 256 µg/mL
same,MIC,Pseudomonas aeruginosa [9],> 256 µg/mL
same,MIC,Bacillus anthracis,1 µg/mL
same,MBC,Staphylococcus aureus [10],64 µg/mL
same,MBC,Staphylococcus aureus [11],64 µg/mL
same,MBC,Staphylococcus aureus [12],64 µg/mL
same,MBC,Staphylococcus aureus [13],64 µg/mL
same,MBC,[14],128 µg/mL
same,MBC,Escherichia coli [15],> 256 µg/mL
same,MBC,Pseudomonas aeruginosa [16],> 256 µg/mL
same,MBC,Pseudomonas aeruginosa [17],> 256 µg/mL
same,MBC,Pseudomonas aeruginosa [18],> 256 µg/mL
same,MIC,[19],4 µg/mL
same,MIC,[20],4 µg/mL
same,MIC,[21],8 µg/mL
same,MIC,[22],8 µg/mL
same,MIC,[23],4 µg/mL
same,MIC,[24],8 µg/mL
same,MIC,[25],4 µg/mL
same,MIC,[26],4 µg/mL
same,MIC,[27],4 µg/mL
same,MIC,[28],8 µg/mL
same,MIC,[29],8 µg/mL
same,MBC,[30],256 µg/mL
same,MBC,[31],128 µg/mL
same,MBC,[32],256 µg/mL
same,MBC,[33],256 µg/mL
same,MBC,[34],128 µg/mL
same,MBC,[35],256 µg/mL
same,MBC,[36],128 µg/mL
same,MBC,[37],128 µg/mL
same,MBC,[38],256 µg/mL
same,MBC,[39],256 µg/mL
same,MBC,[40],128 µg/mL
same,diameter of the inhibition zone (DIZ),Bacillus subtilis [41],26 mm
same,diameter of the inhibition zone (DIZ),Bacillus subtilis [42],26 mm

# — ChEMBL document CHEMBL3400015, “Tertiary amides of Salinomycin: A new group of antibacterial agents against Bacillus anthracis and methicillin-resistant Staphylococcus epidermidis” (Bioorg Med Chem Lett, 2015)
